Experimental data: patent US7968526B2, “Antisense oligonucleotides directed to ribonucleotide reductase R2 and uses thereof in the treatment of cancer” (Lorus Therapeutics Inc., priority 2003, dated 2011)

System: Hela S3 human cervix epitheloid carcinoma cells
Experiment: Hela S3 hydroxyurea resistant cervix carcinoma xenograft in SCID mice
Type: in vivo, human cells in mice
Protocol: BxPC-3 is a gemcitabine resistant call line. […] Gemcitabine was administered intravenously every three days at a dose of 100 mg/kg. Antitumour activities were estimated by the inhibition of tumour volume, which was measured with caliper. Each point represents mean tumour volume calculated from 10 animals per experimental group. […] Hela S3 is a hydroxyurea resistant cell line. […] Hydroxyurea was administered intraperitoneally every day at a dose of 250 mg/kg for 10 days. Cisplatin was administered intravenously once a week for three weeks at a dose of 4 mg/kg. Antitumour activities were estimated by the inhibition of tumour volume, which was measured with caliper. Each point represents mean tumour volume calculated from 10 animals per experimental group. […] Cisplatin was administered intravenously once a week for three weeks at a dose of 4 mg/kg. Taxol was administered intravenously once a week for three weeks at a dose of 10 mg/kg. Antitumour activities were estimated by the inhibition of tumour volume, which was measured with caliper. Each point represents mean tumour volume calculated from 10 animals per experimental group. […] Taxol was administered i.p. once a week at a dose of 10 mg/kg. Antitumour activities were estimated by the inhibition of tumour volume (FIG. 12A), which was measured with calipers. Each point represents mean tumour volume calculated from 10 animals per experimental group. Animals were sacrificed and tumour weights taken at the end of the study (FIG. 12C). […] The effects of combined treatment were greater than either treatment alone. […] Cisplatin was administered intravenously once a week for four weeks at a dose of 4 mg/kg. Taxol was administered intravenously once a week for four weeks at a dose of 20 mg/kg. Antitumour activities were estimated by the inhibition of tumour volume, which was measured with caliper. Each point represents mean tumour volume calculated from 9-10 animals per experimental group. […] Cisplatin was administered intravenously once a week for four weeks at a dose of 4 mg/kg. Antitumour activities were estimated by the inhibition of tumour volume, which was measured with caliper. Each point represents mean tumour volume calculated from 10 animals per experimental group. At the end of the study the animals were sacrificed and tumours weighed. […] Taxol was administered i.p. once a week at a dose of 10 mg/kg. Anti-tumour activity was estimated by the inhibition of tumour volume, which was measured with caliper. Each point represents mean tumour volume calculated from 10 animals per experimental group. In addition animals were sacrificed and tumour weights taken at the end of the study. […] CPT-11 was administered i.p. for 5 days at a dose of 20 mg/kg/day. Antitumour activities were estimated by the inhibition of tumour volume, which was measured with caliper. Each point represents mean tumour volume calculated from 10 animals per experimental group. Tumour weights were measured after animals were sacrificed at the end of the treatment. These cells are not resistant to CPT-11 which was used as a positive control.

## NC(=O)NO [Hydroxyurea (HU), Hydroxyurea, reference compound]
Hela S3 (cervix), hydroxyurea resistant, SCID, SEQ ID NO:1 10 mg/kg i.v. every other day 6 times, Hydroxyurea 250 mg/kg i.p. daily 10 days, Cisplatin 4 mg/kg i.v. weekly x3
  Tumour weight as % of saline control: 92%
Hela S3 hydroxyurea resistant, SCID mice, SEQ ID NO:1 10 mg/kg i.v. every other day, Hydroxyurea 250 mg/kg i.p. daily, Cisplatin 4 mg/kg i.v. weekly
  Antitumour effect (tumour volume, FIG. 10): ineffective against Hydroxyurea-resistant tumour
